In US20030232851A1, “Viral treatment” (The Procter & Gamble Company, priority 1999, published 2003):
Where “and” joins values, the source holds several entries; their conditions need not be identical. Equal entries are not always repeated.

Columns and labels:
[1] = target: T1, HIV-1 protease (Human immunodeficiency virus type 1 group M subtype B, UniProt P04585); assay: Protease inhibition assay (fluorometric); assay type: biochemical; conditions: for Protease Inhibition, sample reading: sample 1, sample 2
T1 construct: precludes use of the fluorometric HIV-1 protease assay; purchased Bachem
Method: Protease inhibition is evaluated using a fluorometric method. Enzyme (Bachem) is diluted to 116 μgm/ml in 50 mM NaOAC, 5 mM DTT, 2 mM EDTA, 10% glycerol (pH 5.0) and stored as 10 μl samples at −20° C., HIV protease substrates I (Molecular Probes) is diluted to a working concentration of 0.32 nmoles/μl. Enzyme (20 μl) and drug (20 μl) are added to each well of a microtiter plate as appropriate. Positive and negative controls are evaluated in parallel. Fluorescence is quantitated on Labsystems Fluroskan II using 355 nm/460 nm at 37° C. at time zero and at 30 minute intervals for 2 hours. In instances where autofluorescence precludes use of the fluorometric HIV-1 protease assay or confirmation of a result is required, an HPLC based protease assay can be employed.

[2] = tested on: CEMROD; assay: CEMROD screening: toxicity values (XTT); assay type: cell-based, human; parameters: Toxicity Values, samples 1-3 / Toxicity Values, average: unit not given here
Method: After 6 days (or the experimental period) of incubation at 37° C. in a 5% carbon dioxide incubator the test plates are analyzed by staining with the tetrazolium dye XTT. […] On day 6 post-infection plates are removed from the incubator and observed. […] The results of the macroscopic observations were confirmed and enhanced by further microscopic analysis.
Phenazine methosulfate (PMS) solution is prepared at 15 mg/ml in PBS and stored in the dark at −20° C. […] Fifty microliters of XTT/PMS is added to each well of the plate and the plate is reincubated or 4 hours at 37° C. […] Percent cell reduction, percent cell viability, IC25,50, & 95 and TC25,50, & 95 can then be calculated.

[3] = Table 2 duplicate study, 0.32 μg/ml
[4] = Table 2 duplicate study, 1 μg/ml
[5] = Table 2 duplicate study, 1.0 μg/ml
[6] = Table 2 duplicate study, 3.2 μg/ml
[7] = Table 2 duplicate study, 32 μg/ml
[8] = Table 2 duplicate study, 100 μg/ml

c1csc(-c2nc3cccnc3[nH]2)c1 [2-(2-thienyl)-imidazolo [4,5-b]pyridine] was tested, and the “Protease Inhibition, mean” value ([1]; 1 nM) was 24.7, the “Protease Inhibition, sample reading” value ([1]; 1 nM) was 27.1 and 22.4 and the “Protease Inhibition, mean” value ([1]; 10 nM) was 36.7. The “Protease Inhibition, sample reading” value ([1]; 10 nM) was 33.2 and 40.2, the “Protease Inhibition, mean” value ([1]; 100 nM) was 76.1 and the “Protease Inhibition, sample reading” value ([1]; 100 nM) was 75.4 and 76.8. For the same molecule, the “Protease Inhibition, mean” value ([1]; 1000 nM) was 213.8, the “Protease Inhibition, sample reading” value ([1]; 1000 nM) was 219.4 and 208.2 and the “Toxicity Values, % cell control” value ([2]; Table 1, 0.32 μg/ml) was 102%. The “Toxicity Values, average” value ([2]; Table 1, 0.32 μg/ml) was 1.144, the “Toxicity Values, % cell control” value ([2]; Table 1, 1 μg/ml) was 100.1% and the “Toxicity Values, average” value ([2]; Table 1, 1 μg/ml) was 1.122. For the same molecule, the “Toxicity Values, % cell control” value ([2]; Table 1, 1.0 μg/ml) was 81.3%, the “Toxicity Values, average” value ([2]; Table 1, 1.0 μg/ml) was 0.912 and the “Toxicity Values, % cell control” value ([2]; Table 1, 3.2 μg/ml) was 94.1%. The “Toxicity Values, average” value ([2]; Table 1, 3.2 μg/ml) was 1.055, the “Toxicity Values, % cell control” value ([2]; Table 1, 32 μg/ml) was 28.7% and the “Toxicity Values, average” value ([2]; Table 1, 32 μg/ml) was 0.322. The “Toxicity Values, % cell control” value ([2]; Table 1, 100 μg/ml) was 7.6%, the “Toxicity Values, average” value ([2]; Table 1, 100 μg/ml) was 0.086 and the “Toxicity Values, % cell control” value [2, 3] was 114.7%. The “Toxicity Values, average” value [2, 3] was 1.088, the “Toxicity Values, samples 1-3” value [2, 3] was 1.189 and 1.074 and 1.000 and the “Toxicity Values, % cell control” value [2, 4] was 108.4%. For the same molecule, the “Toxicity Values, average” value [2, 4] was 1.028, the “Toxicity Values, samples 1-3” value [2, 4] was 1.066 and 1.038 and 0.980 and the “Toxicity Values, % cell control” value [2, 5] was 72.2%. For the same molecule, the “Toxicity Values, average” value [2, 5] was 0.684, the “Toxicity Values, samples 1-3” value [2, 5] was 0.694 and 0.726 and 0.633 and the “Toxicity Values, % cell control” value [2, 6] was 98.9%. For the same molecule, the “Toxicity Values, average” value [2, 6] was 0.938, the “Toxicity Values, samples 1-3” value [2, 6] was 1.008 and 0.924 and 0.881 and the “Toxicity Values, % cell control” value [2, 7] was 17.4%. The “Toxicity Values, average” value [2, 7] was 0.165, the “Toxicity Values, samples 1-3” value [2, 7] was 0.183 and 0.168 and 0.145 and the “Toxicity Values, % cell control” value [2, 8] was 13.5%. For the same molecule, the “Toxicity Values, average” value [2, 8] was 0.128, the “Toxicity Values, samples 1-3” value [2, 8] was 0.121 and 0.133 and 0.130 and the “toxicity (in words)” value ([2]; at the higher concentrations) was “not toxic”.
